Experimental data taken from patent US20030220252A1, “Method for treating a patient with neoplasia by treatment with a gonadotropin releasing hormone analog” (priority 1998, published 2003).

Key:
cGMP-PDE = cGMP-PDE inhibition assay, enzyme purified from HT-29 tumor cells; assay type: biochemical, human; settings: for % Inhibition at 100 μM (cGMP PDE): test compounds
[1] = tested on: HT-29 human colon carcinoma cell line; test: Growth inhibition of HT-29 cells (SRB assay; trypan blue count); assay type: cell-based
COX = COX inhibition; assay type: biochemical; settings: 100 μM
[2] = tested on: PDE peak B (novel cGMP-specific PDE); test: cGMP hydrolysis by PDE peak B isolated from SW-480 cells; assay type: biochemical, human
PDE peak A (PDE5) = target: T1, PDE peak A (PDE5) (Homo sapiens, UniProt O76074); test: cGMP hydrolysis by PDE peak A isolated from SW-480 cells; assay type: biochemical
T1 construct: SW-480 cells are collected and homogenized; endogenous in cells; host or cells: SW-480 human colon adenocarcinoma cells; supernatant of homogenate fractionated on DEAE-Trisacryl M

HT-29 cells = test: Apoptosis and necrosis by morphology (acridine orange/ethidium bromide) in HT-29 cells; assay type: cell-based, human; settings: for apoptotic and necrotic cell death, in words: HT-29 cells treated for six days
Experimental: Treatment of cells with test compounds involves either pre- or post-confluent cultures and treatment for two to seven days at various concentrations of the compound in question. Apoptotic cells are measured by combining both the attached and “floating” compartments of the cultures. The protocol for treating tumor cell cultures with sulindac and related compounds to obtain a significant amount of apoptosis has been described in the literature. (See, Piazza, G. A., et al., Cancer Research, 55:3110-16, 1995, which is incorporated herein by reference). The novel features include collecting both floating and attached cells, identification of the optimal treatment times and dose range for observing apoptosis, and identification of optimal cell culture conditions.
Following treatment with a test compound, cultures can be assayed for apoptosis and necrosis by fluorescent microscopy following labeling with acridine orange and ethidium bromide. The method for measuring apoptotic cell number has previously been described by Duke & Cohen, “Morphological And Biochemical Assays Of Apoptosis,” Current Protocols In Immunology, Coligan et al., eds., 3.17.1-3.17.16 (1992, which is incorporated herein by reference).
For example, floating and attached cells can be collected, and aliquots of cells can be centrifuged. The cell pellet can then be resuspended in media and a dye mixture containing acridine orange and ethidium bromide. The mixture can then be examined microscopically for morphological features of apoptosis.
Reference compounds and test compounds were analyzed for their cGMP-specific PDE inhibitory activity in accordance with the protocols for the assay, supra. […] Apoptotic and necrotic cell death was determined as previously described (Duke and Cohen, In: Current Protocols in Immunology, 3.17.1-3.17.16, New York, John Wiley and Sons, 1992). […]
The apoptosis inducing activity for a series of phosphodiesterase inhibitors was determined. […] Apoptosis and necrosis were determined morphologically after acridine orange and ethidium bromide labeling in accordance with the assay described, supra.

[3] = tested on: premalignant lesions in mouse mammary gland organ culture; test: Mammary gland organ culture model; assay type: cell-based
Experimental: For example, female BALB/c mice can be treated with a combination of estradiol and progesterone daily, in order to prime the glands to be responsive to hormones in vitro. The animals are sacrificed and thoracic mammary glands are excised aseptically and incubated for ten days in growth media supplemented with insulin, prolactin, hydrocortisone, and aldosterone. DMBA (7,12-dimethylbenz(a)anthracene) is added to medium to induce the formation of premalignant lesions. Fully developed glands are then deprived of prolactin, hydrocortisone, and aldosterone, resulting in the regression of the glands but not the premalignant lesions.
The test compound is dissolved in DMSO and added to the culture media for the duration of the culture period. At the end of the culture period, the glands are fixed in 10% formalin, stained with alum carmine, and mounted on glass slides. The extent of the area occupied by the mammary lesions can be quantitated by projecting an image of the gland onto a digitation pad. The area covered by the gland is traced on the pad and considered as 100% of the area. The space covered by each of the unregressed structures is also outlined on the digitization pad and quantitated by the computer.
The incidence of forming mammary lesions is the ratio of the glands with mammary lesions to […]. The incidence of mammary lesions in test compound treated glands is compared with that of the untreated glands.
Mammary gland organ culture experiments were performed as previously described (Mehta and Moon, Cancer Research, 46: 5832-5835, 1986). […] The data support the hypothesis that cyclooxygenase inhibition is not necessary for the anti-neoplastic properties of desired compounds.

[4] = Side effects of exisulind on administration; assay type: in vivo; settings: reversible
Excerpt: This effect is reversible, and liver enzymes return to normal levels when the administered dose of exisulind returns to the traditionally recommended level or when treatment is discontinued. The most serious side effects of GnRH analogs, on the other hand, are related to decreases serum levels of estrogen and testosterone.

[5] = tested on: cAMP levels in HT-29 cells; test: cAMP levels in HT-29 cells by radioimmunoassay; assay type: cell-based, human; settings: HT-29 cells treated 30 minutes
Excerpt: It has been observed that a compound which is useful in the practice of this invention (i.e., one that selectively induces apoptosis in neoplastic cells, but not substantially in normal cells) follows a time course consistent with cGMP-specific PDE inhibition. […] The intracellular targets of these drug actions are being studied further, but current data support the concept that the initial rise in cGMP content and the subsequent fall in cAMP content precede apoptosis in neoplastic cells exposed to test compounds useful in this invention. To determine the cyclic AMP content in cell extracts, radioimmunoassay techniques similar to those described above for cGMP are used.

[6] = tested on: cGMP levels in HT-29 cells; test: cGMP levels in HT-29 cells by radioimmunoassay; assay type: cell-based, human; settings: HT-29 cells treated 30 minutes

In the case of CCN(CC)CCSC12CC(=O)OC1(C)/C(=C/c1ccc(S(C)(=O)=O)cc1)c1ccc(F)cc12 (racemic) [A, rac-threo-(E)-1-(N,N′-diethylaminoethanethio)-1-(butan-1′,4′-olido)-[3′,4′:1,2]-6-fluoro-2-methyl-3-(p-methylsulfonylbenzylidene)-indan], the “% Inhibition at 100 μM (cGMP PDE)” value (cGMP-PDE) is reported as less than 25% and the “Growth inhibitory activity, % Inhibition at 100 μM” value ([1]; 100 μM single dose) is reported as 68%.

With CC1=C(CC(=O)O)c2cc(F)ccc2/C1=C\c1ccc(Cl)cc1 [C, (Z)-5-Fluoro-2-methyl-1-(p-chlorobenzylidene)-3-acetic acid] the “% Inhibition at 100 μM (cGMP PDE)” value (cGMP-PDE) was less than 25%.

In the case of COc1cc(C=C2C(C)=C(CC(=O)O)c3cc(F)ccc32)cc(OC)c1OC [Compound B, (Z)-5-Fluoro-2-methyl-1-(3,4,5-trimethoxybenzylidene)-3-acetic acid], the “COX inhibition, in words” value (COX) is reported as “did not inhibit COX” and the “% Inhibition at 100 μM (cGMP PDE)” value (cGMP-PDE) is reported as less than 25%.

With O=C([O-])C1CCN(c2nc(NCc3ccc4c(c3)OCO4)c3cc(Cl)ccc3n2)CC1.[Na+] [Compound E4021] the “inhibition / sensitivity of the new cGMP-PDE (peak B), in words” value (shortened to “inhibition / sensitivity”) [2] was “relatively insensitive”.

With COc1cc(/C=C2/C(C)=C(CC(=O)NCc3ccccc3)c3cc(F)ccc32)cc(OC)c1OC [Compound E, (Z)-5-Fluoro-2-methyl-1-(3,4,5-trimethoxybenzylidene)-3-indenylacetamide, N-benzyl] the “COX inhibition, in words” value (COX) was “did not inhibit COX”, the “inhibition / sensitivity” value [2] was “competitively inhibit” and the “inhibition of peak A (PDE5), in words” value (PDE peak A (PDE5)) was “competitively inhibit”. The “% Inhibition at 100 μM (cGMP PDE)” value (cGMP-PDE) was 75%.

In the case of CC1=C(CC(=O)O)c2cc(F)ccc2/C1=C\c1ccc(S(C)(=O)=O)cc1 [Exisulind, (Z)-5-fluoro-2-methyl-1-[[4-(methylsulfonyl)phenyl]methylene]indene-3-yl acetic acid], the “apoptotic and necrotic cell death, in words” value (HT-29 cells) is reported as “capable of causing apoptotic cell death without inducing necrosis”, the “inhibition of premalignant lesions in mammary gland organ culture, in words” value (“inhibition of premalignant lesions” below) [3] is reported as “effectively inhibit the formation of premalignant lesions” and the “inhibition / sensitivity” value [2] is reported as “inhibits both PDE5 and the new cGMP-PDE”. The “inhibition of peak A (PDE5), in words” value (PDE peak A (PDE5)) was “inhibits both PDE5 and the new cGMP-PDE”, the “effect at doses higher than the recommended therapeutic levels” value [4] was “elevated levels of liver enzymes” and the “% Inhibition at 10 μM (cGMP PDE)” value (cGMP-PDE) was 39%.

For CC1(C)C(=O)Nc2ccc(C3=NNC(=O)CC3)cc21 [Indolidan], the “inhibition / sensitivity” value [2] was “relatively insensitive”.

For COc1ccc(C2CNC(=O)C2)cc1OC1CCCC1 (stereo not drawn) [Rolipram], the “inhibition / sensitivity” value [2] was “relatively insensitive” and the “effect on levels of cAMP, in words” value [5] was “increased cAMP levels”.

In the case of CCCc1nn(C)c2c(=O)[nH]c(-c3cc(S(=O)(=O)N4CCN(C)CC4)ccc3OCC)nc12 [Sildenafil], the “inhibition / sensitivity” value [2] is reported as “relatively insensitive” and the “inhibition of peak A (PDE5), in words” value (PDE peak A (PDE5)) is reported as “inhibited activity of peak A”.

With CSc1ccc(/C=C2/C(C)=C(CC(=O)O)c3cc(F)ccc32)cc1 [Sulindac sulfide] the “apoptosis by morphological determination, in words” value (HT-29 cells; 120 μM, time course) was “increase in apoptosis”, the “apoptotic and necrotic cell death, in words” value (HT-29 cells) was “capable of causing apoptotic cell death without inducing necrosis” and the “inhibition of premalignant lesions” value [3] was “inactive”. The “inhibition / sensitivity” value [2] was “competitively inhibit”, the “inhibition of peak A (PDE5), in words” value (PDE peak A (PDE5)) was “competitively inhibit” and the “effect on levels of cAMP, in words” value [5] was “unaffected”. The “increase of the levels of cGMP” value [6] was “greater than 50%”, the “% Inhibition at 10 μM (cGMP PDE)” value (cGMP-PDE) was 97% and the “growth inhibition by counting viable cells after trypan blue staining, in words” value ([1]; 120 μM, time course) was “capable of inhibiting tumor cell growth”.

For CCOC(=O)C1=C[C@]2(CC)CCCN3CCc4c(n1c1ccccc41)[C@@H]32 [Vinpocetine], the “inhibition / sensitivity” value [2] was “relatively insensitive”.

With CCCOc1ccccc1-c1nc2nn[nH]c2c(=O)[nH]1 [Zaprinast] the “inhibition / sensitivity” value [2] was “relatively insensitive”.

With CC1=C(CC(=O)O)c2cc(F)ccc2/C1=C/c1ccc([S+](C)[O-])cc1 (stereo not drawn) [sulindac sulfoxide] the “inhibition of premalignant lesions” value [3] was “effectively inhibit the formation of premalignant lesions”.
